Experimental data reported in PubChem BioAssay AID2060894 (Molecular Pharmacology Branch, DTP, NCI, 2025).

Test system: K12877-001-R-J1-PDC complex spheroid viability
Assay: Anticancer human tumor K12877-001-R-J1-PDC patient-derived lung adenocarcinoma cell line growth inhibition [RAS]
Settings: for IC50: curve of first compound; for viability, T/C: stronger effect = lower value
Source text: RAS pathway inhibitors in Combinations in Complex Spheroids
A high-throughput screen of multi-cell type tumor spheroids was designed to identify active combinations of RAS pathway inhibitors and targeted small molecules. Complex spheroids include a stromal component modeled by human endothelial cells (HUVEC) and fibroblasts modeled by human mesenchymal stem cells (MSCs). The concentration ranges selected for each drug and investigational agent were based upon clinically achievable concentrations if the clinical Cmax of the agent was known.
Compounds. The drugs and investigational agents: abemaciclib (NSC768073), cobimetinib (NSC768068), divarasib (GDC6063, NSC841802), docetaxel (NSC628503), GDC-1971 (RLY-1971, NSC841576), gemcitabine (NSC613327), inavolisib (NSC800729), ipatasertib (NSC767898), KB-0742 (NSC834161), MRTX-1133 (NSC836407), osimertinib (NSC779217), RMC-4630 (NSC839698), RMC-6236 (NSC851965), RMC-6291 (NSC852671), Ro-3306 (NSC812927), sapanisertib (NSC764658), SN-38 (NSC673596), staurosporine (NSC755774), SY5609 (NSC837396), and tovorafenib (DAY101, NSC766906), were obtained from the National Cancer Institute (NCI) Developmental Therapeutics Program Chemical Repository. The FDA-approved anticancer drug set is available from the NCI Developmental Therapeutics Program. […] The stock solutions were prepared in dimethyl sulfoxide (DMSO, Sigma-Aldrich, St. Louis, MO, cat. D2650) at 800-fold the tested concentration and stored at -70 degrees C prior to their use. All drugs and investigational agents were tested over a range starting from a high concentration at or near the clinical Cmax and decreasing in half-log increments. If the clinical Cmax for an agent had not been determined, the highest concentration tested was 10 microM.
Cell Culture. All cells were maintained in an incubator at 37 degrees C and 5% CO2 with 95% humidity. The PDC lines were cultured according to standard operating procedures established by the NCI PDMR. All PDCs were thawed and cultured in Matrigel-coated flasks prepared with a working solution of 1X Ham's F-12 nutrient mix, without supplementation (Invitrogen, Waltham, MA, cat. 11765054), 100 U/mL penicillin-streptomycin (Invitrogen, cat. 15140122), and 2.5% Matrigel (Corning Inc., Corning, NY, cat. 354248) for the first three passages. The 362531-283-R-J2-PDC and 782815-120-R-J1-PDC lines were cultured in 6C/Colon 1B media, which includes advanced DMEM/F-12 (Thermo Fisher Scientific, cat. 12634028), 10 mM HEPES (Thermo Fisher Scientific, cat. 15630080), 1X GlutaMAX supplement (Thermo Fisher Scientific, cat. 35050061), 0.1 mg/mL primocin (InvivoGen, San Diego, CA, cat. ant-pm-2), 10% defined fetal bovine serum, heat inactivated (HyClone Laboratories Inc., Logan, UT, cat. SH30070.03HI), 50% L-WRN conditioned media (ATCC, cat. CRL-3276), 1.25 mM N-Acetyl-L-cysteine (Sigma-Aldrich, cat. A9165), 10 mM nicotinamide (Sigma-Aldrich, cat. N0636), 1X B-27 supplement (Thermo Fisher Scientific, cat. 17504044), 1X N-2 supplement (Thermo Fisher Scientific, cat. 17502048), 50 ng/mL human EGF (Thermo Fisher Scientific, cat. PHG0311), and 10 microM Y-27632 dihydrochloride (Tocris Bioscience, cat. 1254). The K12877-001-R-J1-PDC line was cultured in 6I media, which includes all 6C/Colon 1B media plus 10 ng/mL human FGF-10 (PeproTech, cat. 100-26), 1 ng/mL human FGF-2 (PeproTech, cat. 100-18B), 1 µM prostaglandin E2 (Tocris Bioscience, cat. 2296), […] hydrocortisone (Sigma-Aldrich, cat. H4001), and […] bovine insulin (Sigma-Aldrich, cat. I6634). The K86415-001-R-J1-PDC line was cultured in 6D media, which includes all 6C/Colon 1B media components minus the L-WRN conditioned media. The 485176-168-R4-J1-PDC was cultured in PANC media, which includes all 6C/Colon 1B media plus 100 ng/mL human FGF-10 (PeproTech, cat. 100-26), 500 nM SB-431542 (Selleckchem, cat. S1067), and 10 nM gastrin (Tocris Bioscience, cat. 3006). […]

[1] = second compound 0.0316 µM, first compound 0.0316 µM
[2] = second compound 0.0316 µM, first compound 0.1 µM
[3] = second compound 0.1 µM, first compound 0.0316 µM
[4] = second compound 0.1 µM, first compound 0.1 µM
[5] = second compound 0.316 µM, first compound 0.0316 µM
[6] = second compound 0.316 µM, first compound 0.1 µM
[7] = second compound 1 µM, first compound 0.0316 µM
[8] = second compound 1 µM, first compound 0.1 µM
[9] = second compound 3.16 µM, first compound 0.0316 µM
[10] = second compound 3.16 µM, first compound 0.1 µM
[11] = second compound 10 µM, first compound 0.0316 µM
[12] = second compound 10 µM, first compound 0.1 µM
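Note: spheroids exposed to agents for one week before readout.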

Question: What does the source list for `CC(C)n1nc(-c2ccc3oc(N)nc3c2)c2c(N)ncnc21` + C#Cc1c(F)ccc2cc(O)cc(-c3ncc4c(N5CC6CCC(C5)N6)nc(OCC56CCCN5CC(F)C6)nc4c3F)c12?
Answer: IC50 (second compound 0.0316 µM): 0.0253 µM; IC50 (second compound 0.1 µM): 0.0265 µM; IC50 (second compound 0.316 µM): 0.027 µM; IC50 (second compound 1 µM): 0.028 µM; IC50 (second compound 3.16 µM): 0.0255 µM; IC50 (second compound 10 µM): 0.0256 µM; viability, T/C (second compound 0.0316 µM, first compound 0.000316 µM): 105%; viability, T/C (second compound 0.0316 µM, first compound 0.001 µM): 88.2%; viability, T/C (second compound 0.0316 µM, first compound 0.00316 µM): 83%; viability, T/C (second compound 0.0316 µM, first compound 0.01 µM): 93.9%; viability, T/C [1]: 39.8%; viability, T/C [2]: 24.5%; viability, T/C (second compound 0.1 µM, first compound 0.000316 µM): 99.2%; viability, T/C (second compound 0.1 µM, first compound 0.001 µM): 86.2%; viability, T/C (second compound 0.1 µM, first compound 0.00316 µM): 82.4%; viability, T/C (second compound 0.1 µM, first compound 0.01 µM): 94.2%; viability, T/C [3]: 42.7%; viability, T/C [4]: 24%; viability, T/C (second compound 0.316 µM, first compound 0.000316 µM): 97%; viability, T/C (second compound 0.316 µM, first compound 0.001 µM): 102%; viability, T/C (second compound 0.316 µM, first compound 0.00316 µM): 88.1%; viability, T/C (second compound 0.316 µM, first compound 0.01 µM): 98.8%; viability, T/C [5]: 42.5%; viability, T/C [6]: 23.2%; viability, T/C (second compound 1 µM, first compound 0.000316 µM): 101%; viability, T/C (second compound 1 µM, first compound 0.001 µM): 104%; viability, T/C (second compound 1 µM, first compound 0.00316 µM): 91.7%; viability, T/C (second compound 1 µM, first compound 0.01 µM): 101%; viability, T/C [7]: 44.1%; viability, T/C [8]: 24%; viability, T/C (second compound 3.16 µM, first compound 0.000316 µM): 114%; viability, T/C (second compound 3.16 µM, first compound 0.001 µM): 93.3%; viability, T/C (second compound 3.16 µM, first compound 0.00316 µM): 91.7%; viability, T/C (second compound 3.16 µM, first compound 0.01 µM): 88.1%; viability, T/C [9]: 40.9%; viability, T/C [10]: 24.1%; viability, T/C (second compound 10 µM, first compound 0.000316 µM): 101%; viability, T/C (second compound 10 µM, first compound 0.001 µM): 84.5%; viability, T/C (second compound 10 µM, first compound 0.00316 µM): 82.7%; viability, T/C (second compound 10 µM, first compound 0.01 µM): 79.5%; viability, T/C [11]: 42.6%; viability, T/C [12]: 19.5%

Question: Which IC50 (second compound 0.0316 µM) does the source give for `C[C@@H](NC(=O)c1ncnc(N)c1Cl)c1ncc(C(=O)Nc2cc(C(F)(F)F)c(Cl)cn2)s1` + C#Cc1c(F)ccc2cc(O)cc(-c3ncc4c(N5CC6CCC(C5)N6)nc(OCC56CCCN5CC(F)C6)nc4c3F)c12 here?
Answer: The IC50 was > 10 µM.

Question: What about the IC50 (second compound 0.1 µM) of the same compound?
Answer: The IC50 was > 10 µM.

Question: What about the IC50 (second compound 0.316 µM) of the same compound?
Answer: The IC50 was > 10 µM.

Question: What about the IC50 (second compound 1 µM) of the same compound?
Answer: The IC50 was > 10 µM.

Question: What about the IC50 (second compound 3.16 µM) of the same compound?
Answer: The IC50 was > 10 µM.

Question: What about the IC50 (second compound 10 µM) of the same compound?
Answer: Its IC50 is > 10 µM.

Question: What about the viability, T/C [1] of the same compound?
Answer: Its viability, T/C is 108%.

Question: What about the viability, T/C [2] of the same compound?
Answer: Its viability, T/C is 101%.

Question: And the viability, T/C (second compound 0.0316 µM, first compound 0.316 µM)?
Answer: The viability, T/C was 113%.

Question: And the viability, T/C (second compound 0.0316 µM, first compound 1 µM)?
Answer: The viability, T/C was 107%.

Question: What about the viability, T/C (second compound 0.0316 µM, first compound 3.16 µM) of the same compound?
Answer: The viability, T/C was 99%.

Question: What about the viability, T/C (second compound 0.0316 µM, first compound 10 µM) of the same compound?
Answer: Its viability, T/C is 102%.

Question: What about the viability, T/C [3] of the same compound?
Answer: Its viability, T/C is 94.4%.

Question: And the viability, T/C [4]?
Answer: Its viability, T/C is 96.2%.

Question: What about the viability, T/C (second compound 0.1 µM, first compound 0.316 µM) of the same compound?
Answer: The viability, T/C was 93.5%.

Question: And the viability, T/C (second compound 0.1 µM, first compound 1 µM)?
Answer: The viability, T/C was 103%.

Question: What about the viability, T/C (second compound 0.1 µM, first compound 3.16 µM) of the same compound?
Answer: The viability, T/C was 92.5%.

Question: And the viability, T/C (second compound 0.1 µM, first compound 10 µM)?
Answer: The viability, T/C was 97.9%.

Question: And the viability, T/C [5]?
Answer: Its viability, T/C is 96.9%.

Question: What about the viability, T/C [6] of the same compound?
Answer: The viability, T/C was 105%.

Question: What about the viability, T/C (second compound 0.316 µM, first compound 0.316 µM) of the same compound?
Answer: Its viability, T/C is 97.4%.

Question: And the viability, T/C (second compound 0.316 µM, first compound 1 µM)?
Answer: The viability, T/C was 101%.

Question: And the viability, T/C (second compound 0.316 µM, first compound 3.16 µM)?
Answer: The viability, T/C was 108%.

Question: What about the viability, T/C (second compound 0.316 µM, first compound 10 µM) of the same compound?
Answer: The viability, T/C was 98.6%.

Question: And the viability, T/C [7]?
Answer: The viability, T/C was 87.7%.

Question: What about the viability, T/C [8] of the same compound?
Answer: The viability, T/C was 105%.

Question: And the viability, T/C (second compound 1 µM, first compound 0.316 µM)?
Answer: Its viability, T/C is 102%.

Question: What about the viability, T/C (second compound 1 µM, first compound 1 µM) of the same compound?
Answer: Its viability, T/C is 108%.

Question: What about the viability, T/C (second compound 1 µM, first compound 3.16 µM) of the same compound?
Answer: Its viability, T/C is 106%.

Question: And the viability, T/C (second compound 1 µM, first compound 10 µM)?
Answer: The viability, T/C was 98.9%.

Question: And the viability, T/C [9]?
Answer: The viability, T/C was 107%.

Question: And the viability, T/C [10]?
Answer: The viability, T/C was 104%.

Question: What about the viability, T/C (second compound 3.16 µM, first compound 0.316 µM) of the same compound?
Answer: The viability, T/C was 104%.

Question: What about the viability, T/C (second compound 3.16 µM, first compound 1 µM) of the same compound?
Answer: The viability, T/C was 106%.

Question: What about the viability, T/C (second compound 3.16 µM, first compound 3.16 µM) of the same compound?
Answer: The viability, T/C was 111%.

Question: And the viability, T/C (second compound 3.16 µM, first compound 10 µM)?
Answer: The viability, T/C was 98.3%.

Question: And the viability, T/C [11]?
Answer: Its viability, T/C is 106%.

Question: What about the viability, T/C [12] of the same compound?
Answer: Its viability, T/C is 91.7%.

Question: And the viability, T/C (second compound 10 µM, first compound 0.316 µM)?
Answer: The viability, T/C was 107%.

Question: And the viability, T/C (second compound 10 µM, first compound 1 µM)?
Answer: The viability, T/C was 98%.

Question: What about the viability, T/C (second compound 10 µM, first compound 3.16 µM) of the same compound?
Answer: The viability, T/C was 107%.

Question: And the viability, T/C (second compound 10 µM, first compound 10 µM)?
Answer: Its viability, T/C is 96.7%.
